Target: T1, Prostaglandin G/H synthase 2 (Homo sapiens, UniProt P35354)
T1 sequence (P35354 whole entry): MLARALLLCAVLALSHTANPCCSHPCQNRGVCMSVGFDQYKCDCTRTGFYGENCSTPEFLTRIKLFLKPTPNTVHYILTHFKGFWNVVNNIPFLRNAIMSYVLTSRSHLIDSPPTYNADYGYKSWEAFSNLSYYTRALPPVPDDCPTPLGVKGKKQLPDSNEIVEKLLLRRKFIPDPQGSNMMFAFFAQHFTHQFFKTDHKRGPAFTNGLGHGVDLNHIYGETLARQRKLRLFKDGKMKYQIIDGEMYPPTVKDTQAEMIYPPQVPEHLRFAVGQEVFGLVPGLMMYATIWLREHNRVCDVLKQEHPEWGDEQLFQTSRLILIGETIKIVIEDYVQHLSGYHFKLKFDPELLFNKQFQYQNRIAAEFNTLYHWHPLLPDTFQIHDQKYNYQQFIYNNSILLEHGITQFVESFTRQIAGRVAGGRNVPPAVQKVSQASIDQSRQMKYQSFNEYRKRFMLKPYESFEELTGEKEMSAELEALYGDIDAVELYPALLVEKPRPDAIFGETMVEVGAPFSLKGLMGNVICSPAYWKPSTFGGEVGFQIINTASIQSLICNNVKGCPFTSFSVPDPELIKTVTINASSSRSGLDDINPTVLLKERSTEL
Assay: Inhibition of recombinant human COX2 expressed in baculovirus infected Sf9 insect cells using arachidonic acid as substrate preincubated for 10 mins followed by substrate addition and measured after 10 mins by ELISA

- IC50: 5 nM
SMILES: CCC(=O)NS(=O)(=O)c1ccc(-c2c(-c3ccccc3)noc2C)cc1 [PARECOXIB]
